# Molecular target: Human DGAT2 (Homo sapiens (Human), UniProt Q96PD7)
# Assay: DGAT2 Enzymatic Activity Assay (triolein formation, LC/MS/MS)
# Format: biochemical
# Conditions: hDGAT2 Sf-9 membrane prep; 25 μM diolein, 10 μM oleoyl-CoA; room temperature
# Method in brief: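 Triolein product, measured by LC/MS/MS as a ratio to internal standard, gave % inhibition and 4-parameter IC50. Reaction: 25 μM diolein, 10 μM oleoyl-CoA, 10 ng/μL hDGAT2 Sf-9 membrane, 100 mM Tris.Cl pH 7.0, 20 mM MgCl2, 5% ethanol, room temperature.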
# Human DGAT2, sequence (Q96PD7 whole entry): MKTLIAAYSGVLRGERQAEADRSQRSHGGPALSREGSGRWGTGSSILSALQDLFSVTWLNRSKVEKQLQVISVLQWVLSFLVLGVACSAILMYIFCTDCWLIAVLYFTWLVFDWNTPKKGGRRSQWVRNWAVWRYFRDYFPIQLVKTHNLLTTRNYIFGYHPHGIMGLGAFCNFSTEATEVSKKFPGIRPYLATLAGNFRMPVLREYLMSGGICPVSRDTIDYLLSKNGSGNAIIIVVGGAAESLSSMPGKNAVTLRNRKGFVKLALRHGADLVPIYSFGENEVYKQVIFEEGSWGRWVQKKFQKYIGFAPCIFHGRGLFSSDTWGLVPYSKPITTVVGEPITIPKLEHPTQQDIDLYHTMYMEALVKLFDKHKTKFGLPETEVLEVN
row,Compound,IC50 [nM]
1,"O=C(NCc1ccncc1)c1ccc2c(-c3ccccc3Cl)nn(-c3ccc(F)cc3)c2c1 [Example 33, 3-(2-chlorophenyl)-1-(4-fluorophenyl)-N-(pyridin-4-ylmethyl)-1H-indazole-6-carboxamide]",654
2,"CC1(NC(=O)c2ccc3c(-c4cccnc4F)nn(-c4ccc(F)cc4)c3c2)CCS(=O)(=O)C1 (single isomer, unassigned) [Example 154-A, 1-(4-fluorophenyl)-3-(2-fluoropyridin-3-yl)-N-(3-methyl-1,1-dioxidotetrahydrothiophen-3-yl)-1H-indazole-6-carboxamide]",17
3,"Cc1noc([C@H](NC(=O)c2ccc3c(-c4ccccc4Cl)nn(-c4ccc(F)cc4)c3c2)[C@H](C)O)n1 (stereo in doubt) [Example 48, 3-(2-chlorophenyl)-1-(4-fluorophenyl)-N-[(1R,2S)-2-hydroxy-1-(3-methyl-1,2,4-oxadiazol-5-yl)propyl]-1H-indazole-6-carboxamide]",96
4,"COc1cccc(-c2nn(-c3ccc(F)cc3)c3cc(C(=O)NC4CCS(=O)(=O)C4)ccc23)c1 (single isomer, unassigned) [Example 131-A, N-(1,1-dioxidotetrahydrothiophen-3-yl)-1-(4-fluorophenyl)-3-(3-methoxyphenyl)-1H-indazole-6-carboxamide]",3
5,"CC(C)(C)OC(=O)N1CC[C@H](NC(=O)c2ccc3c(-c4ccccc4Cl)nn(-c4ccc(F)cc4)c3c2)C1 [Example 100, tert-butyl (3S)-3-({[3-(2-chlorophenyl)-1-(4-fluorophenyl)-1H-indazol-6-yl]carbonyl}amino)pyrrolidine-1-carboxylate]",12
6,"O=C1CC(NC(=O)c2ccc3c(-c4ccccc4Cl)nn(-c4ccc(F)cc4)c3c2)C(=O)N1 (racemic) [Example 57, 3-(2-chlorophenyl)-N-(2,5-dioxopyrrolidin-3-yl)-1-(4-fluorophenyl)-1H-indazole-6-carboxamide]",669
7,"O=C(NC1COC1)c1ccc2c(-c3ccccc3Cl)nn(-c3ccc(F)cc3)c2c1 [Example 21, 3-(2-chlorophenyl)-1-(4-fluorophenyl)-N-oxetan-3-yl-1H-indazole-6-carboxamide]",873
8,"O=C(NC1(CO)CCOCC1)c1ccc2c(-c3ccccc3Cl)nn(-c3ccc(F)cc3)c2c1 [Example 47, 3-(2-chlorophenyl)-1-(4-fluorophenyl)-N-[4-(hydroxymethyl)tetrahydro-2H-pyran-4-yl]-1H-indazole-6-carboxamide]",47
9,O=C(N[C@@H]1CCCC[C@@H]1O)c1ccc2c(-c3ccccc3Cl)nn(-c3ccc(F)cc3)c2c1 (racemic) [Example 66],68
10,"CC(Cc1ccccn1)NC(=O)c1ccc2c(-c3ccccc3Cl)nn(-c3ccc(F)cc3)c2c1 (racemic) [Example 112, 3-(2-chlorophenyl)-1-(4-fluorophenyl)-N-(1-methyl-2-pyridin-2-ylethyl)-1H-indazole-6-carboxamide]",593
11,"CC(C)[C@@H](CO)NC(=O)c1ccc2c(-c3ccccc3Cl)nn(-c3ccc(F)cc3)c2c1 [Example 69, 3-(2-chlorophenyl)-1-(4-fluorophenyl)-N-[(1S)-1-(hydroxymethyl)-2-methylpropyl]-1H-indazole-6-carboxamide]",8
12,"Cn1ccc(-n2nc(-c3ccccc3Cl)c3ccc(C(=O)NC4(C)CCS(=O)(=O)C4)cc32)n1 (racemic) [Example 184, 3-(2-chlorophenyl)-N-(3-methyl-1,1-dioxidotetrahydrothiophen-3-yl)-1-(1-methyl-1H-pyrazol-3-yl)-1H-indazole-6-carboxamide]",201
13,"O=C(NC1CCOCC1)c1ccc2c(-c3ccccc3Cl)nn(-c3ccc(F)cc3)c2c1 [Example 86, 3-(2-chlorophenyl)-1-(4-fluorophenyl)-N-(tetrahydro-2H-pyran-4-yl)-1H-indazole-6-carboxamide]",505
